± gives the expanded uncertainty stated by the source.
Assay: refractive index (Na D-line) (dimensionless)
Conditions: 100 kPa, Liquid, Standard Abbe refractometry

refractive index (283.15 K)	refractive index (285.65 K)	refractive index (288.15 K)	refractive index (290.65 K)	refractive index (293.15 K)	refractive index (295.65 K)	refractive index (298.15 K)	refractive index (300.65 K)	refractive index (303.15 K)	refractive index (305.65 K)	refractive index (308.15 K)	refractive index (310.65 K)	refractive index (313.15 K)	refractive index (315.65 K)	refractive index (318.15 K)	refractive index (320.65 K)	refractive index (323.15 K)	refractive index (325.65 K)	refractive index (328.15 K)	refractive index (330.65 K)	also measured	SMILES
1.5924 ± 0.0004	1.5912 ± 0.0004	1.59 ± 0.0004	1.5888 ± 0.0004	1.5876 ± 0.0004	1.5864 ± 0.0004	1.5853 ± 0.0004	1.5841 ± 0.0004	1.5829 ± 0.0004	1.5817 ± 0.0004	1.5805 ± 0.0004	1.5793 ± 0.0004	1.5781 ± 0.0004	1.5769 ± 0.0004	1.5757 ± 0.0004	1.5745 ± 0.0004	1.5733 ± 0.0004	1.5721 ± 0.0004	1.5709 ± 0.0004	1.5697 ± 0.0004	refractive index (333.15 K): 1.5685 ± 0.0004; refractive index (335.65 K): 1.5674 ± 0.0004; refractive index (338.15 K): 1.5662 ± 0.0004	O=Cc1cccs1 [2-thiophenealdehyde]
1.5713 ± 0.0004	1.5701 ± 0.0004	1.569 ± 0.0004	1.5679 ± 0.0004	1.5668 ± 0.0004	1.5657 ± 0.0004	1.5646 ± 0.0004	1.5635 ± 0.0004	1.5624 ± 0.0004	1.5613 ± 0.0004	1.5602 ± 0.0004	1.559 ± 0.0004	1.5579 ± 0.0004	1.5568 ± 0.0004	1.5557 ± 0.0004	1.5546 ± 0.0004	1.5535 ± 0.0004	1.5524 ± 0.0004	1.5513 ± 0.0004	1.5502 ± 0.0004	refractive index (333.15 K): 1.5491 ± 0.0004; refractive index (335.65 K): 1.548 ± 0.0004; refractive index (338.15 K): 1.5468 ± 0.0004	OCc1cccs1 [2-thiophenemethanol]

Source: the NIST ThermoML archive (doi:10.1016/j.jct.2017.07.008)
